Patent US10414811B2, “Protease-resistant lipidated GLP-1 analogs” (MEDIMMUNE LIMITED, priority 2015, dated 2019)
Like-named read-outs stand apart in the source and are kept apart here. Square brackets hold non-standard residues; d marks the D form. Peptide text beside a SMILES is read from it. * marks the point of attachment. Palmitoyl = CCCCCCCCCCCCCCCC(=O)*; αMeF = C[C@](N)(Cc1ccccc1)C(=O)O; αMeK = C[C@](N)(CCCCN)C(=O)O; Aib = CC(C)(N)C(=O)O

Columns and labels:
Neprilysin = biological target: T1, Neprilysin (Homo sapiens, UniProt P08473); test: Proteolytic resistance to neprilysin (% remaining peptide, RP-HPLC AUC); assay type: in vitro ADME; settings: t = 0; 37° C., pH 8.3
T1 construct: purchased R&D Systems 1182-ZNC-010
Description: Ratio enzyme (units):peptide (μmoles)˜1:33. […] Ratio enzyme (units):peptide (μmoles)˜1:2.5.
15 μL aliquots (˜15 μg initial peptide) of the peptide-enzyme mixture were periodically withdrawn (t=0, 30 mins, 1 hr, 2 hr, 4 hr, 8 hr, 24 hr) and quenched immediately by addition to an equal volume (15 μL) of 5% TFA (v/v) in 1:1 water/acetonitrile to arrest proteolytic activity. 20 μL aliquots (˜10 μg initial peptide) were analyzed by LC/MS and/or analytical RP-HPLC as follows: LC/MS method: Agilent Polaris C8-A column (4.6×100 mm, 3 micron) eluted with a linear binary gradient of 10-90% MeCN (0.1% TFA v/v) in water (0.1% TFA v/v) over 30 mins at 1.5 mL min-1 at ambient temperature with detection by both UV absorption at 210 nm and ionization using a Waters 3100 mass detector (ESI+ mode). Peptide fragments deriving from enzymatic hydrolysis were identified by molecular weight, allowing location of the site of cleavage. Analytical RP-HPLC method: Agilent Polaris C8-A column (4.6×100 mm, 3 micron) eluted with a linear binary gradient of 10-90% MeCN (0.1% TFA v/v) in water (0.1% TFA v/v) over either 10 or 15 mins at 1.5 mL min^−1 at 40° C. with detection by UV absorption at 210 nm. Manual integration (AUC) allowed estimation of remaining intact peptide over the time course of the experiment.
25 μL aliquots (˜6 μg initial peptide) were analyzed by LC/MS and/or analytical RP-HPLC as follows: LC/MS method: Agilent Polaris C8-A column (4.6×100 mm, 3 micron) eluted with a linear binary gradient of 10-90% MeCN (0.1% TFA v/v) in water (0.1% TFA v/v) over 30 mins at 1.5 mL min^−1 at ambient temperature with detection by both UV absorption at 210 nm and ionization using a Waters 3100 mass detector (ESP mode). Peptide fragments deriving from enzymatic hydrolysis were identified by molecular weight, allowing location of the site of cleavage. Analytical RP-HPLC method: Agilent Polaris C8-A column (4.6×100 mm, 3 micron) eluted with a linear binary gradient of 10-90% MeCN (0.1% TFA v/v) in water (0.1% TFA v/v) over either 10 or 15 mins at 1.5 mL min^−1 at 40° C. with detection by UV absorption at 210 nm. Manual integration (AUC) allowed estimation of remaining intact peptide over the time course of the experiment.

[1] = biological target: T2, human GLP-1 receptor (GLP-1R) (Homo sapiens, UniProt P43220); test: cAMP assay, human GLP-1R cells; assay type: cell-based
T2 construct: expressed in transfected cells
Method in brief: (§1)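 Peptide-stimulated cAMP measured by two-step HTRF after a 30 min room-temperature incubation with receptor-expressing cells (hGLP-1R, hGIPR at 1×10^5 cells/ml; hGCGR at 2×10^5 cells/ml). Duplicate dilutions; EC50 from 4-parameter logistic fit of % Delta F.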

[2] = biological target: T3, human glucagon receptor (GCGR) (Homo sapiens, UniProt P47871); test: cAMP assay, human GCGR cells; assay type: cell-based; settings: cAMP assay
T3 construct: expressed in transfected cells
Method in brief: as §1

[3] = biological target: T4, human glucose-dependent insulinotropic peptide receptor (GIPR) (Homo sapiens, UniProt P48546); test: cAMP assay, human GIPR cells; assay type: cell-based; settings: cAMP assay
T4 construct: expressed in transfected cells
T4 sequence (P48546 22-466): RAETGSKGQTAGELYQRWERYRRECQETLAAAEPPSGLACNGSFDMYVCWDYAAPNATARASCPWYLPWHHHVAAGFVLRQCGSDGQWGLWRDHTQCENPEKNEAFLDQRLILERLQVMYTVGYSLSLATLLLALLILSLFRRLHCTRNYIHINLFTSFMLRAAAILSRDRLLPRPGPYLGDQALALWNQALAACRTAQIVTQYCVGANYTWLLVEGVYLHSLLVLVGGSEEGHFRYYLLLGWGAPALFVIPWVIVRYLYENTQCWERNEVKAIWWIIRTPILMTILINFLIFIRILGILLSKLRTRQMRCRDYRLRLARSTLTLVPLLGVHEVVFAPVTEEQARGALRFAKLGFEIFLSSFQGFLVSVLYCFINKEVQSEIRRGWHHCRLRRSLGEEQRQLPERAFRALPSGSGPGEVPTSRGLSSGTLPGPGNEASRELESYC
Method in brief: as §1

GLP-1R (INS1e assay) = biological target: T5, GLP-1R (INS1e assay) (Rattus norvegicus, UniProt P32301); test: INS1e assay, cAMP activity at GLP-1R; assay type: cell-based; settings: mono-lipidated peptides
T5 construct: endogenous in cells; host or cells: INS-1E cells
T5 sequence (P32301 22-463): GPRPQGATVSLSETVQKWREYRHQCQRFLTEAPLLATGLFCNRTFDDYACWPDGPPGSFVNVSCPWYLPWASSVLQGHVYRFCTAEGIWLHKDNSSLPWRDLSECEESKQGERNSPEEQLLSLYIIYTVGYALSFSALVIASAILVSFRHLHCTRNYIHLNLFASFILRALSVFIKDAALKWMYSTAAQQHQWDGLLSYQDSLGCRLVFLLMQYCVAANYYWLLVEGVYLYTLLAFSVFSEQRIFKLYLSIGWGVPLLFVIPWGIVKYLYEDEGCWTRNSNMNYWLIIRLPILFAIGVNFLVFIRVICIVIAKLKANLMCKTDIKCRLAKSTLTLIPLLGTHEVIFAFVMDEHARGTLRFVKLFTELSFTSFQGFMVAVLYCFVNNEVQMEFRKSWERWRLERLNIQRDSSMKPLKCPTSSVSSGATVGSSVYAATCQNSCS
Method in brief: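 It pairs cAMP-d2 acceptor with anti-cAMP cryptate donor, both prepared 1/20 in conjugate/lysis buffer, applied as a two-step protocol.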

[4] = cAMP assay, first determination (n1), read-out: Primary assay EC50 GLP-1R n1
[5] = cAMP assay, second determination (n2), read-out: Primary assay EC50 GLP-1R n2
[6] = mean of n1 and n2, read-out: Mean pM GLP-1R
[7] = first determination (n1), read-out: Primary assay EC50 Gluc-R (n1)
[8] = second determination (n2), read-out: Primary assay EC50 Gluc-R (n2)
[9] = first determination (n1), read-out: Primary assay EC50 GIP-R (n1)
[10] = second determination (n2), read-out: Primary assay EC50 GIP-R (n2)
[11] = mean of n1 and n2, read-out: INS1e assay EC50 Mean pM GLP-1R
[12] = replicate n1, read-out: INS1e assay EC50 GLP-1R n1
[13] = replicate n2, read-out: INS1e assay EC50 GLP-1R n2

T3 sequence (P47871 26-477): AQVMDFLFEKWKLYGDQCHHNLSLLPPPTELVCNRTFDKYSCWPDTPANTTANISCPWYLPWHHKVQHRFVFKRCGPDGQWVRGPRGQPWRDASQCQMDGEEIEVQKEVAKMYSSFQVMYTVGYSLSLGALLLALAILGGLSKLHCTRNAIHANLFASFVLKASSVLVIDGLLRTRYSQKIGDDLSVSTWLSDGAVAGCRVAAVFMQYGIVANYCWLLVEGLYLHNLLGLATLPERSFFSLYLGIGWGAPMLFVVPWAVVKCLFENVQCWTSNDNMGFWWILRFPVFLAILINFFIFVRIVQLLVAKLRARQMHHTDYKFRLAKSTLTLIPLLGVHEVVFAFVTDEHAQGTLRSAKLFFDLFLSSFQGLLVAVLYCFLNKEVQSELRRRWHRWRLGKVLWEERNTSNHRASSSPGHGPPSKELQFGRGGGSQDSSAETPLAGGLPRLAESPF
T2 sequence (P43220 24-463): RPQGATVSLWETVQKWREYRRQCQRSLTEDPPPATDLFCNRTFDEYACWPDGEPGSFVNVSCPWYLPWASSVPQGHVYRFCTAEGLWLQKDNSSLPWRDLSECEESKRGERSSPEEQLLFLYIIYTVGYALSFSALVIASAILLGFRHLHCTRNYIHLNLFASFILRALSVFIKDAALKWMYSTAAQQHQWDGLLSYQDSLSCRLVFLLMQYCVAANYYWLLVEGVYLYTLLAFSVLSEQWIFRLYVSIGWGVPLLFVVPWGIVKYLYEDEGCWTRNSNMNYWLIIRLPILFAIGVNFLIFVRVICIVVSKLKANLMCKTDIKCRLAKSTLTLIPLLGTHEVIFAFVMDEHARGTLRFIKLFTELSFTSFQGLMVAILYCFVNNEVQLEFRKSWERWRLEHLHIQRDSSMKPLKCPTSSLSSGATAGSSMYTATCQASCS
T1 sequence (P08473 whole entry): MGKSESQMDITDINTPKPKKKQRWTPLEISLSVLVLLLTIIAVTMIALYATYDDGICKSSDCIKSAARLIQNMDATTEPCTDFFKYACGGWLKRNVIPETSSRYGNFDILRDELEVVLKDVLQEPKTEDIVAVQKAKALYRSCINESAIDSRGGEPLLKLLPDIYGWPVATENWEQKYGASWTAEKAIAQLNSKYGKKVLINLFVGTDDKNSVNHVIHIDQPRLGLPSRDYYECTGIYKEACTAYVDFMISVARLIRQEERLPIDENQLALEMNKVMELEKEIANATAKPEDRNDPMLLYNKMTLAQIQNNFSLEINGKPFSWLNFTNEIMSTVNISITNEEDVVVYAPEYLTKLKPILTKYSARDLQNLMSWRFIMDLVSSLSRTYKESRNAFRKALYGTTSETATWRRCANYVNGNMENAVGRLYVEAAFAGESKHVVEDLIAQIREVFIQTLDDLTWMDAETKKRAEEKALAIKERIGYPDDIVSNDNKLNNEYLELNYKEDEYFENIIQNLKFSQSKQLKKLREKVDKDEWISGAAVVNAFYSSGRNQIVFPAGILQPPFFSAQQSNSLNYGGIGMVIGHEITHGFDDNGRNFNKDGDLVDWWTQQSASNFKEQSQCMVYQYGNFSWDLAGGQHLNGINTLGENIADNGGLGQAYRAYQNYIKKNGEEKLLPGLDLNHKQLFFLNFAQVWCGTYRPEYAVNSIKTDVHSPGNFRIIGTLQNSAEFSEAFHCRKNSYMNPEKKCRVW

Compound | Percentage remaining peptide (AUC at specified time-point by RP-HPLC) upon incubation with neprilysin, t = 0 (Neprilysin) | EC50 [1, 4] | EC50 [1, 5] | EC50 [1, 6] | EC50 [2, 7] | EC50 [2, 8] | EC50 [3, 9] | EC50 [3, 10] | EC50 (GLP-1R (INS1e assay); [11]) | EC50 (GLP-1R (INS1e assay); [12]) | EC50 (GLP-1R (INS1e assay); [13])
CCCCCCCCCCCCCCCC(=O)NCCCC[C@H](NC(=O)CNC(=O)CNC(=O)[C@](C)(CCCCN)NC(=O)[C@@H](NC(=O)[C@@H](NC(=O)[C@](C)(Cc1ccccc1)NC(=O)[C@H](C)NC(=O)[C@@H](NC(=O)[C@](C)(Cc1ccccc1)NC(=O)[C@H](CCC(=O)O)NC(=O)[C@](C)(CCCCN)NC(=O)[C@H](C)NC(=O)[C@H](C)NC(=O)[C@H](CCC(N)=O)NC(=O)CNC(=O)[C@H](CCC(=O)O)NC(=O)[C@H](CC(C)C)NC(=O)[C@](C)(Cc1ccccc1)NC(=O)[C@H](CO)NC(=O)[C@H](CO)NC(=O)[C@@H](NC(=O)[C@H](CC(=O)O)NC(=O)[C@H](CO)NC(=O)[C@@H](NC(=O)[C@](C)(Cc1ccccc1)NC(=O)[C@H](CO)NC(=O)CNC(=O)[C@H](CCC(=O)O)NC(=O)C(C)(C)NC(=O)[C@@H](N)Cc1c[nH]cn1)[C@@H](C)O)C(C)C)[C@@H](C)CC)C(C)C)C(C)C)C(N)=O [compound 489] (H-H[Aib]EGS[αMeF]TSDVSS[αMeF]LEGQAA[αMeK]E[αMeF]IA[αMeF]VV[αMeK]GGK(Palmitoyl)-NH2) | 100% |  |  |  |  |  |  |  |  |  | 
CCCCCCCCCCCCCCCC(=O)N[C@@H](CCC(=O)NCCCC[C@H](NC(=O)[C@H](C)NC(=O)[C@H](C)NC(=O)[C@H](CCC(=O)O)NC(=O)CNC(=O)[C@H](CCC(=O)O)NC(=O)[C@H](CC(C)C)NC(=O)[C@](C)(Cc1ccccc1)NC(=O)[C@H](CO)NC(=O)[C@](C)(CO)NC(=O)[C@@H](NC(=O)[C@H](CC(=O)O)NC(=O)[C@H](CO)NC(=O)[C@@H](NC(=O)[C@](C)(Cc1ccccc1)NC(=O)[C@H](CO)NC(=O)CNC(=O)[C@H](CCC(=O)O)NC(=O)C(C)(C)NC(=O)[C@@H](N)Cc1c[nH]cn1)[C@@H](C)O)C(C)C)C(=O)N[C@@H](CCC(=O)O)C(=O)N[C@@](C)(Cc1ccccc1)C(=O)N[C@H](C(=O)N[C@@H](C)C(=O)N[C@@](C)(Cc1ccccc1)C(=O)N[C@H](C(=O)N[C@H](C(=O)N[C@@](C)(CCCCN)C(=O)NCC(=O)NCC(N)=O)C(C)C)C(C)C)[C@@H](C)CC)C(=O)O [compound 80] |  | 31 pM | 17 pM | 24 pM | ≥ 28000 pM | ≥ 28000 pM | ≥ 28000 pM | ≥ 28000 pM | 2610 pM | 3890 pM | 1330 pM
CCCCCCCCCCCCCCCCCC(=O)N[C@@H](CCC(=O)N[C@@H](CCC(=O)N[C@@H](CCC(=O)NCCCC[C@H](NC(=O)[C@@H](NC(=O)[C@@H](NC(=O)[C@](C)(Cc1ccccc1)NC(=O)[C@H](C)NC(=O)[C@@H](NC(=O)[C@](C)(Cc1ccccc1)NC(=O)[C@H](CCC(=O)O)NC(=O)[C@](C)(CCCCN)NC(=O)[C@H](C)NC(=O)[C@H](C)NC(=O)[C@H](CCC(=O)O)NC(=O)CNC(=O)[C@H](CCC(=O)O)NC(=O)[C@H](CC(C)C)NC(=O)[C@](C)(Cc1ccccc1)NC(=O)[C@H](CO)NC(=O)[C@](C)(CO)NC(=O)[C@@H](NC(=O)[C@H](CC(=O)O)NC(=O)[C@H](CO)NC(=O)[C@@H](NC(=O)[C@](C)(Cc1ccccc1)NC(=O)[C@H](CO)NC(=O)CNC(=O)[C@H](CCC(=O)O)NC(=O)C(C)(C)NC(=O)[C@@H](N)Cc1c[nH]cn1)[C@@H](C)O)C(C)C)[C@@H](C)CC)C(C)C)C(C)C)C(=O)NCC(=O)NCC(N)=O)C(=O)O)C(=O)O)C(=O)O [compound 184] |  | 47 pM | 12 pM | 29.5 pM | ≥ 26000 pM | ≥ 26000 pM | ≥ 26000 pM | ≥ 26000 pM | 426 pM | 351 pM | 501 pM
